{
  "source": "paper PMC8120209",
  "about": "“Longitudinal evaluation of a novel BChE PET tracer as an early in vivo biomarker in the brain of a mouse model for Alzheimer disease” (Theranostics, 2021)",
  "key": {"N neuronal α7 (h)": {"target": "T1, N neuronal α7 (h) (Homo sapiens, UniProt P36544)", "T1 construct": "gene CHRNA7", "experiment": "biochemical", "set-up": "Eurofins SafetyScreen44 radioligand displacement, inhibition of control specific binding", "conditions": "read-out: % Inhibition of Control Specific Binding, Mean"}, "kappa (h) (KOP)": {"target": "T2, kappa (h) (KOP) (Homo sapiens, UniProt P41145)", "T2 construct": "gene OPRK1", "T2 sequence (P41145 whole entry)": "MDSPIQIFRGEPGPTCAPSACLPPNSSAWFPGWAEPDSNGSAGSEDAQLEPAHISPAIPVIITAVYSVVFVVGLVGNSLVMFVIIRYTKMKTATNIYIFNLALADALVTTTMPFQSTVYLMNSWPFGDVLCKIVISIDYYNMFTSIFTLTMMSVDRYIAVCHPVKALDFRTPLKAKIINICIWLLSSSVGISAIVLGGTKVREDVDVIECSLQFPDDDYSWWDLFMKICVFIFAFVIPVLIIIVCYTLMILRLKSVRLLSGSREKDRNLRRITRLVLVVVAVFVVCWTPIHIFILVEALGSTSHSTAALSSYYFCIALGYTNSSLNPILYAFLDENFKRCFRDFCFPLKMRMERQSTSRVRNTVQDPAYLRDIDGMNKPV", "experiment": "biochemical", "set-up": "Eurofins SafetyScreen44 radioligand displacement, inhibition of control specific binding", "conditions": "read-out: % Inhibition of Control Specific Binding, Mean"}, "5-HT1B (h)": {"target": "T3, 5-HT1B (h) (Homo sapiens, UniProt P28222)", "T3 construct": "gene HTR1B", "experiment": "biochemical", "set-up": "Eurofins SafetyScreen44 radioligand displacement, inhibition of control specific binding", "conditions": "read-out: % Inhibition of Control Specific Binding, Mean"}, "5-HT1A(h)": {"target": "T4, 5-HT1A(h) (Homo sapiens, UniProt P08908)", "T4 construct": "gene HTR1A", "experiment": "biochemical", "set-up": "Eurofins SafetyScreen44 radioligand displacement, inhibition of control specific binding", "conditions": "read-out: % Inhibition of Control Specific Binding, Mean"}, "5-HT6 (h)": {"target": "T5, 5-HT6 (h) (Homo sapiens, UniProt P50406)", "T5 construct": "gene HTR6", "T5 sequence (P50406 whole entry)": "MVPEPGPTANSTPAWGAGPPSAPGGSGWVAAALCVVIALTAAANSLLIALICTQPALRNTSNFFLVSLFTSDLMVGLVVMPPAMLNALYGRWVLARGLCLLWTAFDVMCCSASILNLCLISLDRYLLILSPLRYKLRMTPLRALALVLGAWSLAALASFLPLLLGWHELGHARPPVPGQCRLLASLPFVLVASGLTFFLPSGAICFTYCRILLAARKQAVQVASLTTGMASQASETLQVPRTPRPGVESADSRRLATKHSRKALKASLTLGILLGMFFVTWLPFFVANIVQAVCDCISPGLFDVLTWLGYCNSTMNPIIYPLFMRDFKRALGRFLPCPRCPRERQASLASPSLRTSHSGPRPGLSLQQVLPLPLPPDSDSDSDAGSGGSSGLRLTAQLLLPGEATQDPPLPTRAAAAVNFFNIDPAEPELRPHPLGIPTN", "experiment": "biochemical", "set-up": "Eurofins SafetyScreen44 radioligand displacement, inhibition of control specific binding", "conditions": "read-out: % Inhibition of Control Specific Binding, Mean"}, "CB2(h)": {"target": "T6, CB2(h) (Homo sapiens, UniProt P34972)", "T6 construct": "gene CNR2", "experiment": "biochemical", "set-up": "Eurofins SafetyScreen44 radioligand displacement, inhibition of control specific binding", "conditions": "read-out: % Inhibition of Control Specific Binding, Mean"}, "[1]": {"target": "T7, Potassium Channel hERG (human) (Homo sapiens, UniProt Q12809)", "T7 construct": "gene KCNH2", "T7 sequence (Q12809 whole entry)": "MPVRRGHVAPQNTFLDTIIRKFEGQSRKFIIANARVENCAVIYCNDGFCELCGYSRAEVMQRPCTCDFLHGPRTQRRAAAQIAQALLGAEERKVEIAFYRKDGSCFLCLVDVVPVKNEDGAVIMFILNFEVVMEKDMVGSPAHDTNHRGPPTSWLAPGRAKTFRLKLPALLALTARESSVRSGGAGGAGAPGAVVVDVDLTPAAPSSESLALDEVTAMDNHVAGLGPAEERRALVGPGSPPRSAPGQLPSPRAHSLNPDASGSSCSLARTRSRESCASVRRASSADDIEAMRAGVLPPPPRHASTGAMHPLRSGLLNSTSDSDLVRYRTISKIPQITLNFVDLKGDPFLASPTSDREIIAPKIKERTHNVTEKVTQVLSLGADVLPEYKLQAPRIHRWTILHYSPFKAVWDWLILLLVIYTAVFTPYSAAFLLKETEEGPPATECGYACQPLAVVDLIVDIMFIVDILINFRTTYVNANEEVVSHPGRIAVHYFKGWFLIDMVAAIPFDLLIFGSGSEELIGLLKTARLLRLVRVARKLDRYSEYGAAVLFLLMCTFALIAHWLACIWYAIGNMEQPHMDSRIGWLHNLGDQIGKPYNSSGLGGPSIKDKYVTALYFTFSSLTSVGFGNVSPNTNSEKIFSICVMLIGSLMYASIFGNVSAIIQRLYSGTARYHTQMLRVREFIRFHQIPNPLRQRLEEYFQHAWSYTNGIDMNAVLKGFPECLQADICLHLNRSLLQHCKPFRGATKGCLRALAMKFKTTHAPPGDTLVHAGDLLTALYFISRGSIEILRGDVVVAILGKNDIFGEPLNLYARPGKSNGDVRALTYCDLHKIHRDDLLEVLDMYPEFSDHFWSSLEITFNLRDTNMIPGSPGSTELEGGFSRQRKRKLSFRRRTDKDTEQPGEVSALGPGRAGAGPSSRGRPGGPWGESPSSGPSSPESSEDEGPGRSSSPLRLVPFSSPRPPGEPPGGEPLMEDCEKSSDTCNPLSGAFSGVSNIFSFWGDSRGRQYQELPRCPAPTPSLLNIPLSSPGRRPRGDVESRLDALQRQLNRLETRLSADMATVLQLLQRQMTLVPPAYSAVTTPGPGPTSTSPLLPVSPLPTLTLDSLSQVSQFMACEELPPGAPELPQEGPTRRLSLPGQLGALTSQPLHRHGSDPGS", "experiment": "in vitro", "set-up": "Eurofins SafetyScreen44 radioligand displacement, inhibition of control specific binding", "conditions": "read-out: % Inhibition of Control Specific Binding, Mean"}, "V1a(h)": {"target": "T8, V1a(h) (Homo sapiens, UniProt P37288)", "T8 construct": "gene AVPR1A", "experiment": "biochemical", "set-up": "Eurofins SafetyScreen44 radioligand displacement, inhibition of control specific binding", "conditions": "read-out: % Inhibition of Control Specific Binding, Mean"}, "5-HT2B(h)": {"target": "T9, 5-HT2B(h) (Homo sapiens, UniProt P41595)", "T9 construct": "gene HTR2B", "experiment": "biochemical", "set-up": "Eurofins SafetyScreen44 radioligand displacement, inhibition of control specific binding", "conditions": "read-out: % Inhibition of Control Specific Binding, Mean"}, "5-HT5a(h)": {"target": "T10, 5-HT5a(h) (Homo sapiens, UniProt P47898)", "T10 construct": "gene HTR5A", "T10 sequence (P47898 whole entry)": "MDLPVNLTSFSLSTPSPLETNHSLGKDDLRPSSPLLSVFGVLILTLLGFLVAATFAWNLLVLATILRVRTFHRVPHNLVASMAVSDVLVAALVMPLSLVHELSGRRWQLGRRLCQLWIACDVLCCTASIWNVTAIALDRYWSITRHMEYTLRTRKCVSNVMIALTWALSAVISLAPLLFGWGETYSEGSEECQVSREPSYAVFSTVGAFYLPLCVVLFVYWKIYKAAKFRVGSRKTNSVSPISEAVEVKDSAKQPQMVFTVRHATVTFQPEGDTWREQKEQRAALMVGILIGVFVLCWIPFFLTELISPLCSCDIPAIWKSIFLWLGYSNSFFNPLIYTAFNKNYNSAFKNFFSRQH", "experiment": "biochemical", "set-up": "Eurofins SafetyScreen44 radioligand displacement, inhibition of control specific binding", "conditions": "read-out: % Inhibition of Control Specific Binding, Mean"}, "A2A(h)": {"target": "T11, A2A(h) (Homo sapiens, UniProt P29274)", "T11 construct": "gene ADORA2A", "experiment": "biochemical", "set-up": "Eurofins SafetyScreen44 radioligand displacement, inhibition of control specific binding", "conditions": "read-out: % Inhibition of Control Specific Binding, Mean"}, "CB1(h)": {"target": "T12, CB1(h) (Homo sapiens, UniProt P21554)", "T12 construct": "gene CNR1", "experiment": "biochemical", "set-up": "Eurofins SafetyScreen44 radioligand displacement, inhibition of control specific binding", "conditions": "read-out: % Inhibition of Control Specific Binding, Mean"}, "μ (MOP) (h)": {"target": "T13, μ (MOP) (h) (Homo sapiens, UniProt P35372)", "T13 construct": "gene OPRM1", "experiment": "biochemical", "set-up": "Eurofins SafetyScreen44 radioligand displacement, inhibition of control specific binding", "conditions": "read-out: % Inhibition of Control Specific Binding, Mean"}, "δ (DOP) (h)": {"target": "T14, δ (DOP) (h) (Homo sapiens, UniProt P41143)", "T14 construct": "gene OPRD1", "T14 sequence (P41143 whole entry)": "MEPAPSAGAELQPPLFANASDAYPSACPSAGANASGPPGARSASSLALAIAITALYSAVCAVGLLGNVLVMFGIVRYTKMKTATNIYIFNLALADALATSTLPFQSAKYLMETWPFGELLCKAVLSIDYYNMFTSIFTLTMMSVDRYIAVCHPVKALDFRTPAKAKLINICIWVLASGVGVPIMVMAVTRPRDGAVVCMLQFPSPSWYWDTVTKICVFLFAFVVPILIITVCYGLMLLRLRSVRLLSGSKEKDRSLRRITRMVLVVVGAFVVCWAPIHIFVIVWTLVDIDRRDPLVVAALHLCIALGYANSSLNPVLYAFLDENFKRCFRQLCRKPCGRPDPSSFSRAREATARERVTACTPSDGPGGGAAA", "experiment": "biochemical", "set-up": "Eurofins SafetyScreen44 radioligand displacement, inhibition of control specific binding", "conditions": "read-out: % Inhibition of Control Specific Binding, Mean"}, "H2(h)": {"target": "T15, H2(h) (Homo sapiens, UniProt P25021)", "T15 construct": "gene HRH2", "T15 sequence (P25021 whole entry)": "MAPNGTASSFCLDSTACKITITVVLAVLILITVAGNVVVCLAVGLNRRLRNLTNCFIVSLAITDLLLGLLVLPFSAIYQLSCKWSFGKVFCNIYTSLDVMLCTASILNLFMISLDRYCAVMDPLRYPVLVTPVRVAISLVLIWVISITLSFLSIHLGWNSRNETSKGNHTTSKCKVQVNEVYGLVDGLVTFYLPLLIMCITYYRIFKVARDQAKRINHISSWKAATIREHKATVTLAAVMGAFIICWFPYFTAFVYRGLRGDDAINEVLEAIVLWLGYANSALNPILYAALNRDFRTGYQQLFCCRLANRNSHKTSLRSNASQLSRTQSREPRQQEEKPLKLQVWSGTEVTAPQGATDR", "experiment": "biochemical", "set-up": "Eurofins SafetyScreen44 radioligand displacement, inhibition of control specific binding", "conditions": "read-out: % Inhibition of Control Specific Binding, Mean"}, "M3(h)": {"target": "T16, M3(h) (Homo sapiens, UniProt P20309)", "T16 construct": "gene CHRM3", "experiment": "biochemical", "set-up": "Eurofins SafetyScreen44 radioligand displacement, inhibition of control specific binding", "conditions": "read-out: % Inhibition of Control Specific Binding, Mean"}, "D1(h)": {"target": "T17, D1(h) (Homo sapiens, UniProt P21728)", "T17 construct": "gene DRD1", "experiment": "biochemical", "set-up": "Eurofins SafetyScreen44 radioligand displacement, inhibition of control specific binding", "conditions": "read-out: % Inhibition of Control Specific Binding, Mean"}, "M4(h)": {"target": "T18, M4(h) (Homo sapiens, UniProt P08173)", "T18 construct": "gene CHRM4", "experiment": "biochemical", "set-up": "Eurofins SafetyScreen44 radioligand displacement, inhibition of control specific binding", "conditions": "read-out: % Inhibition of Control Specific Binding, Mean"}, "sigma 1 (h)": {"target": "T19, sigma 1 (h) (Homo sapiens, UniProt Q99720)", "T19 construct": "gene SIGMAR1", "T19 sequence (Q99720 whole entry)": "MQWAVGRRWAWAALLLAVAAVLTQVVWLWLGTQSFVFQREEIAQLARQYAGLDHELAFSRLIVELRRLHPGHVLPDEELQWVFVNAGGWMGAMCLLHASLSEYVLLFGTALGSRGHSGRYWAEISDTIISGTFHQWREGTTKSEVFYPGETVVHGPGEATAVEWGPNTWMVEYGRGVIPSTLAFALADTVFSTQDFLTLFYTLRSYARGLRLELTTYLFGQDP", "experiment": "biochemical", "set-up": "Eurofins SafetyScreen44 radioligand displacement, inhibition of control specific binding", "conditions": "read-out: % Inhibition of Control Specific Binding, Mean"}, "N neuronal α4β2 (h)": {"target": "T20, N neuronal α4β2 (h) (Homo sapiens, UniProt P17787+P43681)", "T20 construct": "gene CHRNB2", "experiment": "biochemical", "set-up": "Eurofins SafetyScreen44 radioligand displacement, inhibition of control specific binding", "conditions": "read-out: % Inhibition of Control Specific Binding, Mean"}, "5-HT7 (h)": {"target": "T21, 5-HT7 (h) (Homo sapiens, UniProt P34969)", "T21 construct": "gene HTR7", "T21 sequence (P34969 whole entry)": "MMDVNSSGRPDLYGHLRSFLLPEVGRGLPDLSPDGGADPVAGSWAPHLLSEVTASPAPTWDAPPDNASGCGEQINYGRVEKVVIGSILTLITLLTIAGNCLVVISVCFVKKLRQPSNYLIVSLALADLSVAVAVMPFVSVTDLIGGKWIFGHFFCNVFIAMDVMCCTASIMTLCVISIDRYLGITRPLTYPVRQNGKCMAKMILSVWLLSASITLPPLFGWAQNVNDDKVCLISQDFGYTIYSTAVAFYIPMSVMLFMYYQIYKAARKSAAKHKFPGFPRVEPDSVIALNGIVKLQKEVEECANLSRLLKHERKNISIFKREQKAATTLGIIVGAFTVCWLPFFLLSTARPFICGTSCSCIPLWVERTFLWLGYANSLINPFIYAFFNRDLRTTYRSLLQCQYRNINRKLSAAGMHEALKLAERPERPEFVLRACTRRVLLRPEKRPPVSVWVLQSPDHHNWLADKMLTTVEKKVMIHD", "experiment": "biochemical", "set-up": "Eurofins SafetyScreen44 radioligand displacement, inhibition of control specific binding", "conditions": "read-out: % Inhibition of Control Specific Binding, Mean"}, "M2 (h)": {"target": "T22, M2 (h) (Homo sapiens, UniProt P08172)", "T22 construct": "gene CHRM2", "experiment": "biochemical", "set-up": "Eurofins SafetyScreen44 radioligand displacement, inhibition of control specific binding", "conditions": "read-out: % Inhibition of Control Specific Binding, Mean"}, "ETA(h)": {"target": "T23, ETA(h) (Homo sapiens, UniProt P25101)", "T23 construct": "gene EDNRA", "experiment": "biochemical", "set-up": "Eurofins SafetyScreen44 radioligand displacement, inhibition of control specific binding", "conditions": "read-out: % Inhibition of Control Specific Binding, Mean"}, "COX1(h)": {"target": "T24, COX1(h) (Homo sapiens, UniProt P23219)", "T24 construct": "gene PTGS1", "experiment": "biochemical", "set-up": "Eurofins SafetyScreen44 enzyme assays, inhibition of control specific activity", "conditions": "read-out: % Inhibition of Control Values, Mean"}, "PDE3A (h)": {"target": "PDE3A (h) (Homo sapiens, UniProt Q14432)", "sequence (Q14432 whole entry)": "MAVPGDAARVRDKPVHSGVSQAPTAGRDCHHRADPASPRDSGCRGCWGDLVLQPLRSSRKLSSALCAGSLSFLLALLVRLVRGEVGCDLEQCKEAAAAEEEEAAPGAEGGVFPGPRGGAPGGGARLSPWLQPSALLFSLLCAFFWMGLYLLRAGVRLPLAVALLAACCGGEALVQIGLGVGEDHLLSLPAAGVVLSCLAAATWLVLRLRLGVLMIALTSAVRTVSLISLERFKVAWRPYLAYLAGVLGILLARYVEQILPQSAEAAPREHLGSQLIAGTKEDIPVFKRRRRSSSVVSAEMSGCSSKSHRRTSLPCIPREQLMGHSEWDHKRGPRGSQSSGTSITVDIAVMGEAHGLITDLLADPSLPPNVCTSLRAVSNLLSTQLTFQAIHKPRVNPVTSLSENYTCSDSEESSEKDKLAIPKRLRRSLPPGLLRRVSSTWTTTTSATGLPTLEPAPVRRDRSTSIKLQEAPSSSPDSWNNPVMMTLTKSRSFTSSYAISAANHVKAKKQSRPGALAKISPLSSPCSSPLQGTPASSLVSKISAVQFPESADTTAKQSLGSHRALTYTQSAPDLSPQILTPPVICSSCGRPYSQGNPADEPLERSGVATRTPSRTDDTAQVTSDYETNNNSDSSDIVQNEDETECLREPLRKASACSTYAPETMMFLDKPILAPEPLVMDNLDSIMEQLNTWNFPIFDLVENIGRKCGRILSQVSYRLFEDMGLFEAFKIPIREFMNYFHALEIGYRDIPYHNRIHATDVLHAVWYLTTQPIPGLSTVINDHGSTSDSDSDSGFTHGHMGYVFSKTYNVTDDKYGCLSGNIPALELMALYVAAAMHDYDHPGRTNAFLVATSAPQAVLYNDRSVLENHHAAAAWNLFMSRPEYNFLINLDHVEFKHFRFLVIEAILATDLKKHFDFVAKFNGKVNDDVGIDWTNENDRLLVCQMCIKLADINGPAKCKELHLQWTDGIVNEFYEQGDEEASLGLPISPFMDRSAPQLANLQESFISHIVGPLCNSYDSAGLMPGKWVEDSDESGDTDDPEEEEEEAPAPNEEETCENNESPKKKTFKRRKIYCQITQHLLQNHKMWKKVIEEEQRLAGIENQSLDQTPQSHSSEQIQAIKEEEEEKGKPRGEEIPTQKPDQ", "experiment": "biochemical", "set-up": "Eurofins SafetyScreen44 enzyme assays, inhibition of control specific activity", "conditions": "read-out: % Inhibition of Control Values, Mean"}, "Lck kinase (h)": {"target": "Lck kinase (h) (Homo sapiens, UniProt P06239)", "experiment": "biochemical", "set-up": "Eurofins SafetyScreen44 enzyme assays, inhibition of control specific activity", "conditions": "read-out: % Inhibition of Control Values, Mean"}},
  "data": [
    {"compound": "COCCN(CC1CCCN(Cc2ccccc2)C1)S(=O)(=O)c1ccc2ccccc2c1", "note": "(racemic) [compound 4, (±)N-((1-benzylpiperidin-3-yl)methyl)-N-(2-methoxyethyl)naphthalene-2-sulfonamide]", "values": [
      {"measurement": "inhibition at 10 µM", "setting": "N neuronal α7 (h)", "value": 18.2, "unit": "%"},
      {"measurement": "inhibition at 10 µM", "setting": "kappa (h) (KOP)", "value": 26.1, "unit": "%"},
      {"measurement": "inhibition at 10 µM", "setting": "5-HT1B (h)", "value": 45, "unit": "%"},
      {"measurement": "inhibition at 10 µM", "setting": "5-HT1A(h)", "value": 96.2, "unit": "%"},
      {"measurement": "inhibition at 10 µM", "setting": "5-HT6 (h)", "value": 87.1, "unit": "%"},
      {"measurement": "inhibition at 10 µM", "setting": "CB2(h)", "value": 17.6, "unit": "%"},
      {"measurement": "inhibition at 10 µM", "setting": "[1]", "value": 84.8, "unit": "%"},
      {"measurement": "inhibition at 10 µM", "setting": "V1a(h)", "value": 33.8, "unit": "%"},
      {"measurement": "inhibition at 10 µM", "setting": "5-HT2B(h)", "value": 88.4, "unit": "%"},
      {"measurement": "inhibition at 10 µM", "setting": "5-HT5a(h)", "value": 42.5, "unit": "%"},
      {"measurement": "inhibition at 10 µM", "setting": "A2A(h)", "value": 20.5, "unit": "%"},
      {"measurement": "inhibition at 10 µM", "setting": "CB1(h)", "value": -44.4, "unit": "%"},
      {"measurement": "inhibition at 10 µM", "setting": "μ (MOP) (h)", "value": 82.7, "unit": "%"},
      {"measurement": "inhibition at 10 µM", "setting": "δ (DOP) (h)", "value": 32.8, "unit": "%"},
      {"measurement": "inhibition at 10 µM", "setting": "H2(h)", "value": 27, "unit": "%"},
      {"measurement": "inhibition at 10 µM", "setting": "M3(h)", "value": 35.2, "unit": "%"},
      {"measurement": "inhibition at 10 µM", "setting": "D1(h)", "value": 32.4, "unit": "%"},
      {"measurement": "inhibition at 10 µM", "setting": "M4(h)", "value": 63.2, "unit": "%"},
      {"measurement": "inhibition at 10 µM", "setting": "sigma 1 (h)", "value": 99.9, "unit": "%"},
      {"measurement": "inhibition at 10 µM", "setting": "N neuronal α4β2 (h)", "value": -17.7, "unit": "%"},
      {"measurement": "inhibition at 10 µM", "setting": "5-HT7 (h)", "value": 84.3, "unit": "%"},
      {"measurement": "inhibition at 10 µM", "setting": "M2 (h)", "value": 85.7, "unit": "%"},
      {"measurement": "inhibition at 10 µM", "setting": "ETA(h)", "value": -3.9, "unit": "%"},
      {"measurement": "inhibition at 10 µM", "setting": "COX1(h)", "value": 0.4, "unit": "%"},
      {"measurement": "inhibition at 10 µM", "setting": "PDE3A (h)", "value": 7, "unit": "%"},
      {"measurement": "inhibition at 10 µM", "setting": "Lck kinase (h)", "value": 52.7, "unit": "%"}
    ]}
  ]
}
